For assay [1], the system named is NQO1 specific enzyme activity in BEAS-2B cells (marker for NRF2 activation). Description: BEAS-2B NQO1 MTT Assay. The following applies: Homo sapiens, compound incubated 48 hours, read-out: EC50 (NQO1 specific enzyme activity induction). Type of assay: cell-based. An outline of the steps:
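BEAS-2B cells treated with compound for 48 h at 37 °C, then lysed; NQO1 activity in lysates measured kinetically by MTT reduction at A570 over 30 min. pEC50 from 3-parameter fit of ΔOD/min versus log concentration; lysate also taken for Cell Titer Glo.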

Assay [2] addresses T1, Keap1 Kelch domain (321-609) / TAMRA-labeled 16mer NRF2 peptide (ETGE motif) (Homo sapiens, UniProt Q14145).
T1 construct: the Kelch domain (321-609) of Keap1 is used
Description: NRF2-Keap1 FP Assay (Keap1 Kelch fluorescence polarization). Type of assay: binding. The note with it: 20 nM Keap1 (321-609), 8 nM Tamra labeled peptide. An outline of the steps: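 Compound dilutions (3-fold) were incubated 1 hr at room temperature with 20 nM Keap1 Kelch (321-609) and 8 nM TAMRA-labeled ETGE 16mer peptide. Buffer was 50 mM Tris pH 8.0, 100 mM NaCl, 5 mM MgCl2, 1 mM DTT, 2 mM CHAPS, 0.005% BSA. Fluorescence polarization (mP) was normalized to controls and fitted with a four-parameter equation to give pIC50.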
(Polarisation of emitted light reports the rotation of a fluorescent probe.)

The target of assay [3] is T2, full length Keap1 protein / full length NRF2 protein (Homo sapiens, UniProt Q14145).
T2 construct: full length NRF2 protein and full length Keap1 protein (Keap1 exists a dimer) are used; His
T2 sequence (Q14145 whole entry): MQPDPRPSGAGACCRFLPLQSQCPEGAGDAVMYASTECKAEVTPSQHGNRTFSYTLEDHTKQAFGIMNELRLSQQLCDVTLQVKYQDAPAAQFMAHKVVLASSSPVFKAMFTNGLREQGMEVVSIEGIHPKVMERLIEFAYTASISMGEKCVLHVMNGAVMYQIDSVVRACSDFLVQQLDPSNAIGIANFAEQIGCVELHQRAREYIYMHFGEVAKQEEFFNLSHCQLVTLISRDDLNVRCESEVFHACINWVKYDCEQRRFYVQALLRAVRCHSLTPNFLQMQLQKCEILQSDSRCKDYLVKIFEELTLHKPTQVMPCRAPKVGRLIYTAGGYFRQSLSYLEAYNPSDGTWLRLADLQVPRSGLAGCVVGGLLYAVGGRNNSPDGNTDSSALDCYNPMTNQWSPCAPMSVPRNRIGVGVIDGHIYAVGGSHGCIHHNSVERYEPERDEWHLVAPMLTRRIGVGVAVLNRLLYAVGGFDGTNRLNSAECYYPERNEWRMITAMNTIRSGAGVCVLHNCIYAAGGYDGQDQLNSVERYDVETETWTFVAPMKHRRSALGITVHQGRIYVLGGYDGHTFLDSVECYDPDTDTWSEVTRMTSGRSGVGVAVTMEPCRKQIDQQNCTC
Description: NRF2-Keap1 TR-FRET Low Protein Assay. Type of assay: binding. The following applies: 1.25 nM Keap1 FlagHis and 2.5 nM biotin-NRF2 added. The procedure, abridged: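 Flag-tagged full-length Keap1 was preincubated with compound (3-fold series) for 2.25 h at 37 °C in Tris pH 8.0/MgCl2/NaCl/BSA/DTT/CHAPS. Biotin-Avi-NRF2 (added at 2.5 nM) was then bound for 1.25 h at 4 °C. Eu-streptavidin/anti-Flag-APC TR-FRET (665/615 nm) was read after 1 h at RT, and pIC50 came from a four-parameter fit.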

Like-named read-outs stand apart in the source and are kept apart here. Some results are limits rather than exact numbers.

Our source for the EC50 and IC50 values is patent publication US10364256B2 (GlaxoSmithKline Intellectual Property Development Limited, priority 2015, dated 2019).

T1 sequence (Q14145 321-609): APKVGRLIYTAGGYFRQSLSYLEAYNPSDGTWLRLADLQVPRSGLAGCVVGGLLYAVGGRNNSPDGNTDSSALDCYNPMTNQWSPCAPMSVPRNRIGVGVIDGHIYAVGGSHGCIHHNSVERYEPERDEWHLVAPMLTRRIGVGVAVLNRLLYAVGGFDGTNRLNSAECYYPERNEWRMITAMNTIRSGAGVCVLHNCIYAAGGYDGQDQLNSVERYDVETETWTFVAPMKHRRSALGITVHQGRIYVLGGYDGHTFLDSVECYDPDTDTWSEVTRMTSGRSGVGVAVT

The EC50 is the concentration at which the effect is half-maximal. Usually IC50 stands for the concentration that inhibits the measured activity by half. `C[C@H](Oc1cccc(-c2cccc(-n3ncc(C(=O)OCCN4CCOCC4)c3[C@@H]3C[C@H]3c3cn(C)nn3)c2)c1)C1CCCCC1` [Example 108, 2-Morpholinoethyl 1-(3′-((S)-1-cyclohexylethoxy)-[1,1′-biphenyl]-3-yl)-5-((1R,2R)-2-(1-methyl-1H-1,2,3-triazol-4-yl)cyclopropyl)-1H-pyrazole-4-carboxylate]: the EC50 in assay [1] lay in the range of 10 to 100 nM. Also, the IC50 in assay [2] was above 10000 nM; in assay [3] it was 1000 to 10000 nM.
For `C[C@H](Oc1cccc(-c2cccc(-n3ncc(C(=O)OCOC(=O)C(C)(C)C)c3[C@@H]3C[C@H]3c3cn(C)nn3)c2)c1)C1CCCCC1` [Example 109, (Pivaloyloxy)methyl 1-(3′-((S)-1-cyclohexylethoxy)-[1,1′-biphenyl]-3-yl)-5-((1R,2R)-2-(1-methyl-1H-1,2,3-triazol-4-yl)cyclopropyl)-1H-pyrazole-4-carboxylate], the EC50 in assay [1] was 1 to 10 nM. The half-maximal inhibitory concentration (IC50) in assay [2] is above 10000 nM; in assay [3], 100 to 1000 nM.
In the same order, the values of `CC(=O)OCOC(=O)c1cnn(-c2cccc(-c3cccc(O[C@@H](C)C4CCCCC4)c3)c2)c1[C@@H]1C[C@H]1c1cn(C)nn1` [Example 110, Acetoxymethyl 1-(3′-((S)-1-cyclohexylethoxy)-[1,1′-biphenyl]-3-yl)-5-((1R,2R)-2-(1-methyl-1H-1,2,3-triazol-4-yl)cyclopropyl)-1H-pyrazole-4-carboxylate] are below 1 nM, 100 to 1000 nM and 10 to 100 nM.
In the same order, the values of `C[C@H](Oc1cccc(-c2cccc(-n3ncc(C(=O)OCOC(=O)c4ccccc4)c3[C@@H]3C[C@H]3c3cn(C)nn3)c2)c1)C1CCCCC1` [Example 111, (Benzoyloxy)methyl 1-(3′-((S)-1-cyclohexylethoxy)-[1,1′-biphenyl]-3-yl)-5-((1R,2R)-2-(1-methyl-1H-1,2,3-triazol-4-yl)cyclopropyl)-1H-pyrazole-4-carboxylate] are 1 to 10 nM, above 10000 nM and 100 to 1000 nM.
For `C[C@H](Oc1cccc(-c2cccc(-n3ncc(C(=O)OCOC(=O)OC(C)(C)C)c3[C@@H]3C[C@H]3c3cn(C)nn3)c2)c1)C1CCCCC1` [Example 112, ((tert-Butoxycarbonyl)oxy)methyl 1-(3′-((S)-1-cyclohexylethoxy)-[1,1′-biphenyl]-3-yl)-5-((1R,2R)-2-(1-methyl-1H-1,2,3-triazol-4-yl)cyclopropyl)-1H-pyrazole-4-carboxylate], in that order: 1 to 10 nM, above 10000 nM and 100 to 1000 nM.
For the compound `Cc1cc([C@@H]2C[C@H]2c2c(C(=O)O)cnn2-c2cccc(-c3cccc(O[C@@H](C)C4CCCCC4)c3)c2)on1` [Example 115, 1-(3′-((S)-1-cyclohexylethoxy)-[1,1′-biphenyl]-3-yl)-5-((1R,2R)-2-(3-methylisoxazol-5-yl)cyclopropyl)-1H-pyrazole-4-carboxylic Acid], the EC50 in assay [1] is 100 to 1000 nM. Also, the 50% inhibitory concentration (IC50) in assay [2] and in assay [3] was 100 to 1000 nM in each case.
Consider `CC[C@H]1COc2ccccc2CN1Cc1cccc(-c2cccc(-n3ncc(C(=O)O)c3[C@@H]3C[C@H]3c3cn(C)nn3)c2)c1` [Example 119, 1-(3′-(((S)-3-Ethyl-2,3-dihydrobenzo[f][1,4]oxazepin-4(5H)-yl)methyl)-[1,1′-biphenyl]-3-yl)-5-((1R,2R)-2-(1-methyl-1H-1,2,3-triazol-4-yl)cyclopropyl)-1H-pyrazole-4-carboxylic Acid], for which, in assay [1], the EC50 was in the range of 100 to 1000 nM. For the same compound, the values for the IC50 in assay [2] and in assay [3] were 10 to 100 nM and below 10 nM, respectively.
In the same order, the values of `CC[C@@H]1COc2ccccc2CN1Cc1cccc(-c2cccc(-n3ncc(C(=O)O)c3[C@@H]3C[C@H]3c3cn(C)nn3)c2)c1` [Example 120, 1-(3′-(((R)-3-Ethyl-2,3-dihydrobenzo[f][1,4]oxazepin-4(5H)-yl)methyl)-[1,1′-biphenyl]-3-yl)-5-((1R,2R)-2-(1-methyl-1H-1,2,3-triazol-4-yl)cyclopropyl)-1H-pyrazole-4-carboxylic Acid] are 10 to 100 nM, 10 to 100 nM and below 10 nM.
In the same order, the values of `C[C@@H]1Cc2ccccc2S(=O)(=O)N(Cc2cccc(-c3cccc(-n4ncc(C(=O)O)c4[C@@H]4C[C@H]4c4cn(C)nn4)c3)c2)C1` [Example 130, 1-(3′-(((R)-4-Methyl-1,1-dioxido-4,5-dihydrobenzo[f][1,2]thiazepin-2(3H)-yl)methyl)-[1,1′-biphenyl]-3-yl)-5-((1R,2R)-2-(1-methyl-1H-1,2,3-triazol-4-yl)cyclopropyl)-1H-pyrazole-4-carboxylic Acid] are 100 to 1000 nM, 10 to 100 nM and 10 to 100 nM.
For `C[C@H]1Cc2ccc(Br)cc2S(=O)(=O)N(Cc2cccc(-c3cccc(-n4ncc(C(=O)O)c4[C@@H]4C[C@H]4c4cn(C)nn4)c3)c2F)C1` [Example 131, 1-(3′-(((S)-8-Bromo-4-methyl-1,1-dioxido-4,5-dihydrobenzo[f][1,2]thiazepin-2(3H)-yl)methyl)-2′-fluoro-[1,1′-biphenyl]-3-yl)-5-((1R,2R)-2-(1-methyl-1H-1,2,3-triazol-4-yl)cyclopropyl)-1H-pyrazole-4-carboxylic acid], in that order: 100 to 1000 nM, 10 to 100 nM and below 10 nM.
`C[C@H]1Cc2ccccc2S(=O)(=O)N(Cc2cccc(-c3cccc(-n4ncc(C(=O)O)c4[C@@H]4C[C@H]4c4cn(C)nn4)c3)c2)C1` [Example 132, 1-(3′-(((S)-4-methyl-1,1-dioxido-4,5-dihydrobenzo[f][1,2]thiazepin-2(3H)-yl)methyl)-[1,1′-biphenyl]-3-yl)-5-((1R,2R)-2-(1-methyl-1H-1,2,3-triazol-4-yl)cyclopropyl)-1H-pyrazole-4-carboxylic acid]: the concentration giving a half-maximal response (EC50) in assay [1] lay in the range of 100 to 1000 nM. The values for the IC50 in assay [2] and in assay [3] were 10 to 100 nM and below 10 nM, respectively.
In the same order, the values of `C[C@H]1Cc2ccccc2S(=O)(=O)N(Cc2cccc(-c3cccc(-n4ncc(C(=O)O)c4[C@H]4C[C@@H]4c4cn(C)nn4)c3)c2)C1` [Example 133, 1-(3′-(((S)-4-methyl-1,1-dioxido-4,5-dihydrobenzo[f][1,2]thiazepin-2(3H)-yl)methyl)-[1,1′ biphenyl]-3-yl)-5-((1S,2S)-2-(1-methyl-1H-1,2,3-triazol-4-yl)cyclopropyl)-1H-pyrazole-4-carboxylic acid] are 1000 to 10000 nM, 100 to 1000 nM and 10 to 100 nM.
With `CCN1CCN(Cc2cccc(-c3cccc(-n4ncc(C(=O)O)c4[C@@H]4C[C@H]4c4cn(C)nn4)c3)c2)S(=O)(=O)c2ccccc21` [Example 139, 1-(3′-((5-Ethyl-1,1-dioxido-4,5-dihydrobenzo[f][1,2,5]thiadiazepin-2(3H)-yl)methyl)-[1,1′-biphenyl]-3-yl)-5-((1R, 2R)-2-(1-methyl-1H-1,2,3-triazol-4-yl)cyclopropyl)-1H-pyrazole-4-carboxylic acid], the EC50 in assay [1] fell in the range of 1000 to 10000 nM. The half-maximal inhibitory concentration (IC50) was 10 to 100 nM in assay [2] and below 10 nM in assay [3].
On to `C[C@@H](Oc1cccc(-c2cccc(-n3ncc(C(=O)O)c3[C@@H]3C[C@H]3c3cn(C)nn3)c2)c1)C1CCCCC1` [Example 162, 1-(3′-((R)-1-Cyclohexylethoxy)-[1,1′-biphenyl]-3-yl)-5-((1R,2R)-2-(1-methyl-1H-1,2,3-triazol-4-yl)cyclopropyl)-1H-pyrazole-4-carboxylic Acid], for which the EC50 in assay [1] (BEAS-2B, 48 h) lay in the range of 10 to 100 nM. Further, the IC50 in assay [2] was 100 to 1000 nM; in assay [3], 10 to 100 nM.
As to `Cn1cc(C2CC2c2c(C(=O)O)cnn2-c2cccc(-c3cccc(OCCC4CCCCC4)c3)c2)nn1` (stereo not drawn) [Example 170, 1-(3′-(2-Cyclohexylethoxy)-[1,1′-biphenyl]-3-yl)-5-(2-(1-methyl-1H-1,2,3-triazol-4-yl)cyclopropyl)-1H-pyrazole-4-carboxylic acid], the EC50 in assay [1] lay within 100 to 1000 nM. The IC50 in assay [2] and in assay [3] was 10 to 100 nM throughout.
As to `CCn1cc([C@H]2C[C@@H]2c2c(C(=O)O)cnn2-c2cc(OC)cc(-c3cccc(OC(C)C4CCCCC4)c3)c2)nn1` (stereo partly drawn) [Example 193, 1-(3′-(1-cyclohexylethoxy)-5-methoxy-[1,1′-biphenyl]-3-yl)-5-((1S,2S)-2-(1-ethyl-1H-1,2,3-triazol-4-yl)cyclopropyl)-1H-pyrazole-4-carboxylic acid], in assay [1], the EC50 was in the range of 100 to 1000 nM. The half-inhibitory concentration (IC50) in assay [2] and in assay [3] was 100 to 1000 nM throughout.
